From patent US20020170078A1, “Calcineurin-related transgenic mammals, compositions and methods” (priority 2001, published 2002)

Test system: Schaffer collateral pathway to area CA1 of hippocampal slices
Experiment: 1-train (100 Hz) LTP, field potential recordings in hippocampal slices
Type: cell-based, mouse

Row | Structure (SMILES) | effect on the enhanced LTP (100 uM, at least 20 min pretreatment, mutant slices) | 1-train LTP, % baseline 30 min after tetanus [% baseline] | effect on 1-train LTP (control slices, 30 min pretreatment) | effect on the increased potentiation (enhanced 1-train LTP) (mutant slices)
1 | NC(CCCP(=O)(O)O)C(=O)O (racemic) [DL-AP5] | abolished |  |  | 
2 | CCCCCCOC(=O)[C@]1(O)C[C@@H]2O[C@@]1(C)n1c3ccccc3c3c4c(c5c6ccccc6n2c5c31)C(=O)NC4 [KT5720] |  | 134±6 | no effect | suppressed
